Measurements from patent EP0908457B1, “3-(1,2-benzisothiazol- and isoxazol-5-Y1)-2,4(1H,3H)-pyrimidinedione or thione and 3-(1,2-benzisothiazol- and isoxazol-5-y1)-4(3H)-pyrimidinone or thione herbicidal agents” (BASF AKTIENGESELLSCHAFT, priority 1997, dated 1999).

Experiments:
[1] = tested on: Cyperus serotinus, Rottb.; assay: Preemergence weed control under flooded paddy conditions, CYPSE (Flatsedge); type: in vivo; details: preemergence, rated three to four weeks after treatment; further: meaning of each grade not given here
[2] = tested on: Sagittaria pygmaea, L.; assay: Preemergence weed control under flooded paddy conditions, SAGPY (Arrowhead (Pygmaea)); type: in vivo; details: preemergence, flooded paddy, rated three to four weeks after treatment; further: meaning of each grade not given here
[3] = tested on: Monochoria vaginalis, Presl.; assay: Preemergence weed control under flooded paddy conditions, MOOVA (Monochoria); type: in vivo; details: preemergence, flooded paddy, rated three to four weeks after treatment; further: meaning of each grade not given here
[4] = tested on: Echinochloa oryzoides (Ard.) Fritsch.; assay: Postemergence weed control under flooded paddy conditions, ECHORC (Watergrass (Calif.)); type: in vivo; details: rated three to four weeks after treatment
[5] = tested on: Sagittaria pygmaea, L.; assay: Postemergence weed control under flooded paddy conditions, SAGPY (Arrowhead (Pygmaea)); type: in vivo; details: rated three to four weeks after treatment
[6] = tested on: Echinochloa oryzoides (Ard.) Fritsch.; assay: Preemergence weed control under flooded paddy conditions, ECHORC (Watergrass (Calif.)); type: in vivo; details: preemergence, flooded paddy, rated three to four weeks after treatment; further: meaning of each grade not given here
[7] = tested on: Cyperus iria; assay: Preemergence weed control under flooded paddy conditions, CYPIR (Rice Flatsedge); type: in vivo; details: preemergence, flooded paddy, rated three to four weeks after treatment; further: meaning of each grade not given here
[8] = tested on: Oryza sativa, (L.) Tebonnet; assay: Rice tolerance to post-transplant applications under flooded paddy conditions (Example 188), ORYSAT (Rice, Tebonnet); details: rated three to four weeks after treatment
[9] = tested on: Cyperus serotinus, Rottb.; assay: Postemergence weed control under flooded paddy conditions, CYPSE (Flatsedge); type: in vivo; details: rated three to four weeks after treatment
[10] = tested on: Oryza sativa, (L.) Tebonnet; assay: Rice tolerance to post-transplant applications under flooded paddy conditions (Example 187), ORYSAT (Rice, Tebonnet); details: rated three to four weeks after treatment; on herbicidal effect rating ORYSAT: meaning of each grade not given here
[11] = tested on: Monochoria vaginalis, Presl.; assay: Postemergence weed control under flooded paddy conditions, MOOVA (Monochoria); type: in vivo; details: rated three to four weeks after treatment
[12] = tested on: Cyperus iria; assay: Postemergence weed control under flooded paddy conditions, CYPIR (Rice Flatsedge); type: in vivo; details: rated three to four weeks after treatment

Structure (SMILES): COC(=O)COc1cc(C)c(C)cc1-c1nsc2ccc(-n3c(=O)cc(C(F)(F)F)n(C)c3=O)cc12 [Example 12, Methyl {{6-{5-[3,6-dihydro-3-methyl-4-(trifluoromethyl)-2,6-dioxo-1(2H)-pyrimidinyl]-1,2-benzisothiazol-3-yl}-3,4-xylyl}oxy}acetate]
- herbicidal effect rating, CYPSE ([1]; 0.0313 kg/ha): 6.0
- herbicidal effect rating, CYPSE ([1]; 0.0625 kg/ha): 7.0
- herbicidal effect rating, CYPSE ([1]; 0.1250 kg/ha): 8.0
- herbicidal effect rating, CYPSE ([1]; 0.2500 kg/ha): 7.0
- herbicidal effect rating, CYPSE ([1]; 0.5000 kg/ha): 7.0
- herbicidal effect rating, SAGPY ([2]; 0.0313 kg/ha): 0.0
- herbicidal effect rating, SAGPY ([2]; 0.0625 kg/ha): 2.0
- herbicidal effect rating, SAGPY ([2]; 0.1250 kg/ha): 4.0
- herbicidal effect rating, SAGPY ([2]; 0.2500 kg/ha): 9.0
- herbicidal effect rating, SAGPY ([2]; 0.5000 kg/ha): 9.0
- herbicidal effect rating, MOOVA ([3]; 0.0313 kg/ha): 9.0
- herbicidal effect rating, MOOVA ([3]; 0.0625 kg/ha): 9.0
- herbicidal effect rating, MOOVA ([3]; 0.1250 kg/ha): 9.0
- herbicidal effect rating, MOOVA ([3]; 0.2500 kg/ha): 9.0
- herbicidal effect rating, MOOVA ([3]; 0.5000 kg/ha): 9.0
- herbicidal effect rating, ECHORC ([4]; Rate 0.0313 kg/ha): 0.0
- herbicidal effect rating, ECHORC ([4]; Rate 0.0625 kg/ha): 2.0
- herbicidal effect rating, ECHORC ([4]; Rate 0.1250 kg/ha): 6.0
- herbicidal effect rating, ECHORC ([4]; Rate 0.2500 kg/ha): 9.0
- herbicidal effect rating, ECHORC ([4]; Rate 0.5000 kg/ha): 9.0
- herbicidal effect rating, SAGPY ([5]; Rate 0.0313 kg/ha): 0.0
- herbicidal effect rating, SAGPY ([5]; Rate 0.0625 kg/ha): 0.0
- herbicidal effect rating, SAGPY ([5]; Rate 0.1250 kg/ha): 0.0
- herbicidal effect rating, SAGPY ([5]; Rate 0.2500 kg/ha): 4.0
- herbicidal effect rating, SAGPY ([5]; Rate 0.5000 kg/ha): 9.0
- herbicidal effect rating, ECHORC ([6]; 0.0313 kg/ha): 9.0
- herbicidal effect rating, ECHORC ([6]; 0.0625 kg/ha): 9.0
- herbicidal effect rating, ECHORC ([6]; 0.1250 kg/ha): 9.0
- herbicidal effect rating, ECHORC ([6]; 0.2500 kg/ha): 9.0
- herbicidal effect rating, ECHORC ([6]; 0.5000 kg/ha): 9.0
- herbicidal effect rating, CYPIR ([7]; 0.0313 kg/ha): 9.0
- herbicidal effect rating, CYPIR ([7]; 0.0625 kg/ha): 9.0
- herbicidal effect rating, CYPIR ([7]; 0.1250 kg/ha): 9.0
- herbicidal effect rating, CYPIR ([7]; 0.2500 kg/ha): 9.0
- herbicidal effect rating, CYPIR ([7]; 0.5000 kg/ha): 9.0
- herbicidal effect rating, ORYSAT (rice tolerance) ([8]; Rate 0.0313 kg/ha): 4.0
- herbicidal effect rating, ORYSAT (rice tolerance) ([8]; Rate 0.0625 kg/ha): 4.0
- herbicidal effect rating, ORYSAT (rice tolerance) ([8]; Rate 0.1250 kg/ha): 7.0
- herbicidal effect rating, ORYSAT (rice tolerance) ([8]; Rate 0.2500 kg/ha): 7.0
- herbicidal effect rating, ORYSAT (rice tolerance) ([8]; Rate 0.5000 kg/ha): 7.0
- herbicidal effect rating, CYPSE ([9]; Rate 0.0313 kg/ha): 0.0
- herbicidal effect rating, CYPSE ([9]; Rate 0.0625 kg/ha): 0.0
- herbicidal effect rating, CYPSE ([9]; Rate 0.5000 kg/ha): 2.0
- herbicidal effect rating, ORYSAT (rice tolerance) ([10]; 0.0313 kg/ha): 4.0
- herbicidal effect rating, ORYSAT (rice tolerance) ([10]; 0.0625 kg/ha): 7.0
- herbicidal effect rating, ORYSAT (rice tolerance) ([10]; 0.1250 kg/ha): 7.0
- herbicidal effect rating, ORYSAT (rice tolerance) ([10]; 0.2500 kg/ha): 8.0
- herbicidal effect rating, ORYSAT (rice tolerance) ([10]; 0.5000 kg/ha): 9.0
- herbicidal effect rating, MOOVA ([11]; Rate 0.0313 kg/ha): 9.0
- herbicidal effect rating, MOOVA ([11]; Rate 0.0625 kg/ha): 9.0
- herbicidal effect rating, MOOVA ([11]; Rate 0.1250 kg/ha): 9.0
- herbicidal effect rating, MOOVA ([11]; Rate 0.2500 kg/ha): 9.0
- herbicidal effect rating, MOOVA ([11]; Rate 0.5000 kg/ha): 9.0
- herbicidal effect rating, CYPIR ([12]; Rate 0.0313 kg/ha): 9.0
- herbicidal effect rating, CYPIR ([12]; Rate 0.0625 kg/ha): 9.0
- herbicidal effect rating, CYPIR ([12]; Rate 0.1250 kg/ha): 9.0
- herbicidal effect rating, CYPIR ([12]; Rate 0.2500 kg/ha): 9.0
- herbicidal effect rating, CYPIR ([12]; Rate 0.5000 kg/ha): 9.0

Structure (SMILES): COc1cc2c(cc1-c1nsc3ccc(-n4c(=O)cc(C(F)(F)F)n(C)c4=O)cc13)CCC2 [Example 380, 2,4(1H,3H)-Pyrimidinedione, 3-[3-(6-methoxy-5-indanyl)-1,2-benzisothiazol-5-yl]-1-methyl-6-(trifluoromethyl)-]
- herbicidal effect rating, CYPSE ([1]; Rate 0.0320 kg/ha): 3.5
- herbicidal effect rating, CYPSE ([1]; Rate 0.0620 kg/ha): 3.5
- herbicidal effect rating, CYPSE ([1]; Rate 0.1250 kg/ha): 8.0
- herbicidal effect rating, CYPSE ([1]; Rate 0.2500 kg/ha): 8.0
- herbicidal effect rating, SAGPY ([2]; Rate 0.0320 kg/ha): 0.0
- herbicidal effect rating, SAGPY ([2]; Rate 0.0620 kg/ha): 0.0
- herbicidal effect rating, SAGPY ([2]; Rate 0.1250 kg/ha): 4.0
- herbicidal effect rating, SAGPY ([2]; Rate 0.2500 kg/ha): 9.0
- herbicidal effect rating, MOOVA ([3]; Rate 0.0320 kg/ha): 9.0
- herbicidal effect rating, MOOVA ([3]; Rate 0.0620 kg/ha): 9.0
- herbicidal effect rating, MOOVA ([3]; Rate 0.1250 kg/ha): 9.0
- herbicidal effect rating, MOOVA ([3]; Rate 0.2500 kg/ha): 9.0
- herbicidal effect rating, ECHORC ([4]; Rate 0.0320 kg/ha): 7.0
- herbicidal effect rating, ECHORC ([4]; Rate 0.0620 kg/ha): 8.0
- herbicidal effect rating, ECHORC ([4]; Rate 0.1250 kg/ha): 9.0
- herbicidal effect rating, ECHORC ([4]; Rate 0.2500 kg/ha): 9.0
- herbicidal effect rating, SAGPY ([5]; Rate 0.0320 kg/ha): 0.0
- herbicidal effect rating, SAGPY ([5]; Rate 0.0620 kg/ha): 0.0
- herbicidal effect rating, SAGPY ([5]; Rate 0.1250 kg/ha): 2.0
- herbicidal effect rating, SAGPY ([5]; Rate 0.2500 kg/ha): 8.0
- herbicidal effect rating, ECHORC ([6]; Rate 0.0320 kg/ha): 9.0
- herbicidal effect rating, ECHORC ([6]; Rate 0.0620 kg/ha): 9.0
- herbicidal effect rating, ECHORC ([6]; Rate 0.1250 kg/ha): 9.0
- herbicidal effect rating, ECHORC ([6]; Rate 0.2500 kg/ha): 9.0
- herbicidal effect rating, CYPIR ([7]; Rate 0.0320 kg/ha): 9.0
- herbicidal effect rating, CYPIR ([7]; Rate 0.0620 kg/ha): 9.0
- herbicidal effect rating, CYPIR ([7]; Rate 0.1250 kg/ha): 9.0
- herbicidal effect rating, CYPIR ([7]; Rate 0.2500 kg/ha): 9.0
- herbicidal effect rating, ORYSAT (rice tolerance) ([8]; Rate 0.0320 kg/ha): 3.0
- herbicidal effect rating, ORYSAT (rice tolerance) ([8]; Rate 0.0620 kg/ha): 7.0
- herbicidal effect rating, ORYSAT (rice tolerance) ([8]; Rate 0.1250 kg/ha): 7.0
- herbicidal effect rating, ORYSAT (rice tolerance) ([8]; Rate 0.2500 kg/ha): 7.0
- herbicidal effect rating, CYPSE ([9]; Rate 0.0320 kg/ha): 0.0
- herbicidal effect rating, CYPSE ([9]; Rate 0.0620 kg/ha): 2.0
- herbicidal effect rating, CYPSE ([9]; Rate 0.1250 kg/ha): 2.0
- herbicidal effect rating, CYPSE ([9]; Rate 0.2500 kg/ha): 8.0
- herbicidal effect rating ORYSAT ([10]; Rate 0.0320 kg/ha): 2.5
- herbicidal effect rating ORYSAT ([10]; Rate 0.0620 kg/ha): 4.0
- herbicidal effect rating ORYSAT ([10]; Rate 0.1250 kg/ha): 5.0
- herbicidal effect rating ORYSAT ([10]; Rate 0.2500 kg/ha): 6.5
- herbicidal effect rating, MOOVA ([11]; Rate 0.0320 kg/ha): 9.0
- herbicidal effect rating, MOOVA ([11]; Rate 0.0620 kg/ha): 9.0
- herbicidal effect rating, MOOVA ([11]; Rate 0.1250 kg/ha): 9.0
- herbicidal effect rating, MOOVA ([11]; Rate 0.2500 kg/ha): 9.0
- herbicidal effect rating, CYPIR ([12]; Rate 0.0320 kg/ha): 9.0
- herbicidal effect rating, CYPIR ([12]; Rate 0.0620 kg/ha): 9.0
- herbicidal effect rating, CYPIR ([12]; Rate 0.1250 kg/ha): 9.0
- herbicidal effect rating, CYPIR ([12]; Rate 0.2500 kg/ha): 9.0
